Test system: 422866-222-R5-J1-PDC complex spheroid viability
Assay: Anticancer human tumor 422866-222-R5-J1-PDC patient-derived pancreatic adenocarcinoma cell line growth inhibition [POLQ]
Conditions: for IC50: curve of first compound; for viability, T/C: stronger effect = lower value
Procedure, shortened: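 Complex spheroid viability model combining PDC tumour cells with endothelial (HUVEC) and MSC stromal cells. Novobiocin, ART-558 or RP6685 were tested singly and in combination with standard and investigational anticancer drugs. Each was titrated in half-log steps from near clinical Cmax, or from 10 microM where Cmax was unknown.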

[1] = second compound 0.0316 µM, first compound 0.0316 µM
[2] = second compound 0.0316 µM, first compound 0.1 µM
[3] = second compound 0.0316 µM, first compound 0.316 µM
[4] = second compound 0.0316 µM, first compound 1 µM
[5] = second compound 0.0316 µM, first compound 3.16 µM
[6] = second compound 0.0316 µM, first compound 10 µM
[7] = second compound 0.1 µM, first compound 0.0316 µM
[8] = second compound 0.1 µM, first compound 0.1 µM
[9] = second compound 0.1 µM, first compound 0.316 µM
[10] = second compound 0.1 µM, first compound 1 µM
[11] = second compound 0.1 µM, first compound 3.16 µM
[12] = second compound 0.1 µM, first compound 10 µM
[13] = second compound 0.316 µM, first compound 0.0316 µM
[14] = second compound 0.316 µM, first compound 0.1 µM
[15] = second compound 0.316 µM, first compound 0.316 µM
[16] = second compound 0.316 µM, first compound 1 µM
[17] = second compound 0.316 µM, first compound 3.16 µM
[18] = second compound 0.316 µM, first compound 10 µM
[19] = second compound 1 µM, first compound 0.0316 µM
[20] = second compound 1 µM, first compound 0.1 µM
[21] = second compound 1 µM, first compound 0.316 µM
[22] = second compound 1 µM, first compound 1 µM
[23] = second compound 1 µM, first compound 3.16 µM
[24] = second compound 1 µM, first compound 10 µM
[25] = second compound 3.16 µM, first compound 0.0316 µM
[26] = second compound 3.16 µM, first compound 0.1 µM
[27] = second compound 3.16 µM, first compound 0.316 µM
[28] = second compound 3.16 µM, first compound 1 µM
[29] = second compound 3.16 µM, first compound 3.16 µM
[30] = second compound 3.16 µM, first compound 10 µM
[31] = second compound 10 µM, first compound 0.0316 µM
[32] = second compound 10 µM, first compound 0.1 µM
[33] = second compound 10 µM, first compound 0.316 µM
[34] = second compound 10 µM, first compound 1 µM
[35] = second compound 10 µM, first compound 3.16 µM
[36] = second compound 10 µM, first compound 10 µM
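Also: spheroids exposed to compounds for one week before readout.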
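For viability, T/C in this document: percent of DMSO vehicle wells luminescence so 100% = untreated viability.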

## CC(C)n1c(=O)n(C)c2cnc3cc(F)c(-c4ccc(OCCCN5CCCCC5)nc4)cc3c21 + COC1C(OC(N)=O)C(O)C(Oc2ccc3c(O)c(NC(=O)c4ccc(O)c(CC=C(C)C)c4)c(=O)oc3c2C)OC1(C)C
Second compound 0.0316 µM
  IC50: < 0.0316 µM
Second compound 0.1 µM
  IC50: < 0.0316 µM
Second compound 0.316 µM
  IC50: < 0.0316 µM
Second compound 1 µM
  IC50: < 0.0316 µM
Second compound 3.16 µM
  IC50: < 0.0316 µM
Second compound 10 µM
  IC50: < 0.0316 µM
[1]
  viability, T/C: 40.7%
[2]
  viability, T/C: 36.1%
[3]
  viability, T/C: 34.5%
[4]
  viability, T/C: 38.5%
[5]
  viability, T/C: 39.4%
[6]
  viability, T/C: 37.2%
[7]
  viability, T/C: 42.6%
[8]
  viability, T/C: 38.5%
[9]
  viability, T/C: 39.1%
[10]
  viability, T/C: 37.8%
[11]
  viability, T/C: 36.9%
[12]
  viability, T/C: 36.2%
[13]
  viability, T/C: 40.6%
[14]
  viability, T/C: 36.1%
[15]
  viability, T/C: 42.4%
[16]
  viability, T/C: 44.7%
[17]
  viability, T/C: 34%
[18]
  viability, T/C: 30.2%
[19]
  viability, T/C: 34.6%
[20]
  viability, T/C: 45.8%
[21]
  viability, T/C: 37.2%
[22]
  viability, T/C: 38.6%
[23]
  viability, T/C: 39.2%
[24]
  viability, T/C: 32.1%
[25]
  viability, T/C: 44%
[26]
  viability, T/C: 40%
[27]
  viability, T/C: 42.3%
[28]
  viability, T/C: 33.4%
[29]
  viability, T/C: 35.4%
[30]
  viability, T/C: 39.6%
[31]
  viability, T/C: 39.1%
[32]
  viability, T/C: 39%
[33]
  viability, T/C: 38.8%
[34]
  viability, T/C: 43.4%
[35]
  viability, T/C: 35.2%
[36]
  viability, T/C: 32.6%

## O=c1[nH]cc(F)c(=O)[nH]1 + COC1C(OC(N)=O)C(O)C(Oc2ccc3c(O)c(NC(=O)c4ccc(O)c(CC=C(C)C)c4)c(=O)oc3c2C)OC1(C)C
Second compound 0.0316 µM
  IC50: > 10 µM
Second compound 0.1 µM
  IC50: > 10 µM
Second compound 0.316 µM
  IC50: > 10 µM
Second compound 1 µM
  IC50: > 10 µM
Second compound 3.16 µM
  IC50: > 10 µM
Second compound 10 µM
  IC50: > 10 µM
[1]
  viability, T/C: 103%
[2]
  viability, T/C: 99.7%
[3]
  viability, T/C: 102%
[4]
  viability, T/C: 98.9%
[5]
  viability, T/C: 82.7%
[6]
  viability, T/C: 78.5%
[7]
  viability, T/C: 109%
[8]
  viability, T/C: 116%
[9]
  viability, T/C: 99.7%
[10]
  viability, T/C: 82.9%
[11]
  viability, T/C: 82.5%
[12]
  viability, T/C: 79%
[13]
  viability, T/C: 109%
[14]
  viability, T/C: 105%
[15]
  viability, T/C: 93.5%
[16]
  viability, T/C: 92.1%
[17]
  viability, T/C: 84.8%
[18]
  viability, T/C: 84%
[19]
  viability, T/C: 107%
[20]
  viability, T/C: 108%
[21]
  viability, T/C: 93.2%
[22]
  viability, T/C: 90.5%
[23]
  viability, T/C: 72.2%
[24]
  viability, T/C: 80.8%
[25]
  viability, T/C: 98%
[26]
  viability, T/C: 94.1%
[27]
  viability, T/C: 102%
[28]
  viability, T/C: 89.2%
[29]
  viability, T/C: 81.8%
[30]
  viability, T/C: 82.5%
[31]
  viability, T/C: 103%
[32]
  viability, T/C: 98%
[33]
  viability, T/C: 99.9%
[34]
  viability, T/C: 79.9%
[35]
  viability, T/C: 77.7%
[36]
  viability, T/C: 81.4%

## COc1cc(C2c3cc4c(cc3C(OC3OC5COC(C)OC5C(O)C3O)C3COC(=O)C23)OCO4)cc(OC)c1O (stereo not drawn) + Cc1cccc(N(C)C(=O)C2C(O)CCN2c2nc(C)cc(C(F)(F)F)c2C#N)c1
Second compound 0.0316 µM
  IC50: 1.23 µM
Second compound 0.1 µM
  IC50: 1.65 µM
Second compound 0.316 µM
  IC50: 1.36 µM
Second compound 1 µM
  IC50: 0.735 µM
Second compound 3.16 µM
  IC50: 0.714 µM
Second compound 10 µM
  IC50: 0.876 µM
[1]
  viability, T/C: 96.8%
[2]
  viability, T/C: 84.3%
[3]
  viability, T/C: 69%
[4]
  viability, T/C: 53.5%
[5]
  viability, T/C: 37.9%
[6]
  viability, T/C: 33.2%
[7]
  viability, T/C: 101%
[8]
  viability, T/C: 92.9%
[9]
  viability, T/C: 63.3%
[10]
  viability, T/C: 58.6%
[11]
  viability, T/C: 44.2%
[12]
  viability, T/C: 31.8%
[13]
  viability, T/C: 110%
[14]
  viability, T/C: 92.7%
[15]
  viability, T/C: 68.8%
[16]
  viability, T/C: 50.6%
[17]
  viability, T/C: 47.7%
[18]
  viability, T/C: 35.8%
[19]
  viability, T/C: 105%
[20]
  viability, T/C: 94.7%
[21]
  viability, T/C: 61.8%
[22]
  viability, T/C: 46.5%
[23]
  viability, T/C: 38.5%
[24]
  viability, T/C: 29.7%
[25]
  viability, T/C: 103%
[26]
  viability, T/C: 88.8%
[27]
  viability, T/C: 56.6%
[28]
  viability, T/C: 49.6%
[29]
  viability, T/C: 40.1%
[30]
  viability, T/C: 33.7%
[31]
  viability, T/C: 91.5%
[32]
  viability, T/C: 77.1%
[33]
  viability, T/C: 56%
[34]
  viability, T/C: 49.9%
[35]
  viability, T/C: 45.1%
[36]
  viability, T/C: 37%

## CCc1c2c(nc3ccc(O)cc13)-c1cc3c(c(=O)n1C2)COC(=O)[C@]3(O)CC + Cc1cccc(N(C)C(=O)C2C(O)CCN2c2nc(C)cc(C(F)(F)F)c2C#N)c1
Second compound 0.0316 µM
  IC50: < 0.00316 µM
Second compound 0.1 µM
  IC50: < 0.00316 µM
Second compound 0.316 µM
  IC50: < 0.00316 µM
Second compound 1 µM
  IC50: < 0.00316 µM
Second compound 3.16 µM
  IC50: < 0.00316 µM
Second compound 10 µM
  IC50: < 0.00316 µM
Second compound 0.0316 µM, first compound 0.00316 µM
  viability, T/C: 44.4%
Second compound 0.0316 µM, first compound 0.01 µM
  viability, T/C: 37.4%
[1]
  viability, T/C: 38.7%
[2]
  viability, T/C: 37.7%
[3]
  viability, T/C: 34.4%
[4]
  viability, T/C: 21.4%
Second compound 0.1 µM, first compound 0.00316 µM
  viability, T/C: 49.1%
Second compound 0.1 µM, first compound 0.01 µM
  viability, T/C: 34.3%
[7]
  viability, T/C: 38.9%
[8]
  viability, T/C: 34.8%
[9]
  viability, T/C: 34.2%
[10]
  viability, T/C: 28.2%
Second compound 0.316 µM, first compound 0.00316 µM
  viability, T/C: 46.2%
Second compound 0.316 µM, first compound 0.01 µM
  viability, T/C: 40.4%
[13]
  viability, T/C: 37.3%
[14]
  viability, T/C: 38.1%
[15]
  viability, T/C: 34.6%
[16]
  viability, T/C: 25%
Second compound 1 µM, first compound 0.00316 µM
  viability, T/C: 40.9%
Second compound 1 µM, first compound 0.01 µM
  viability, T/C: 45.4%
[19]
  viability, T/C: 34.4%
[20]
  viability, T/C: 35.2%
[21]
  viability, T/C: 40.6%
[22]
  viability, T/C: 18.2%
Second compound 3.16 µM, first compound 0.00316 µM
  viability, T/C: 49.7%
Second compound 3.16 µM, first compound 0.01 µM
  viability, T/C: 38.3%
[25]
  viability, T/C: 35.1%
[26]
  viability, T/C: 34.6%
[27]
  viability, T/C: 39.3%
[28]
  viability, T/C: 26.4%
Second compound 10 µM, first compound 0.00316 µM
  viability, T/C: 42.1%
Second compound 10 µM, first compound 0.01 µM
  viability, T/C: 40.1%
[31]
  viability, T/C: 42.2%
[32]
  viability, T/C: 38%
[33]
  viability, T/C: 44.2%
[34]
  viability, T/C: 24.6%

Reference: PubChem BioAssay AID1963844 (Molecular Pharmacology Branch, DTP, NCI, 2024)
